The conditions of data set [1]: carotid body denervated rats; cited from earlier work.
The conditions of data set [2]: mice; cited from earlier work.
For data set [3] the following is noted: cited from earlier work.
For data set [4] the following is noted: rat, IV, single dose; cited from earlier work.
The conditions of data set [5]: intravenous; cited from earlier work.
For data set [6] the following is noted: obstructive sleep apnea, four subjects; cited from earlier work.
The conditions of data set [7]: humans, severe life-threatening side effects; cited from earlier work.
The conditions of data set [8]: lambs; cited from earlier work.
In data set [9] the test system is AMPA receptor. The following applies: human, in vivo; cited from earlier work.
Data set [10] deals with AMPA receptor. As to conditions: in vivo; cited from earlier work.
The conditions of data set [11]: cited from earlier work. The source holds these as a separate data set.
For data set [12] the following is noted: carotid sinus nerve transection; cited from earlier work.
A short description of data set [13]: minute volume after intravenous doxapram enantiomers in rats. The data set is classed as in vivo. The following applies: for behavioral side effects (agitation, seizures): rats.
The nature of data set [14]: minute volume after intravenous doxapram enantiomers in cynomolgus monkeys. The data set is classed as in vivo. The following applies: for behavioral side effects (agitation, seizures): monkeys.
A short description of data set [15]: blood pressure in conscious rats. The class given is in vivo. As to conditions: doses that were moderately respiratory stimulant.
The conditions of data set [16]: cited from earlier work. This is another data set of the same source.
For data set [17] the following is noted: chronic administration, multi-year trials; cited from earlier work.
The conditions of data set [18]: cited from earlier work. This is another data set of the same source.
For data set [19] the following is noted: cited from earlier work. The source holds these as a separate data set.
The conditions of data set [20]: rhesus monkeys; cited from earlier work.
The conditions of data set [21]: in blood; cited from earlier work.
Setting [22] is: healthy volunteers, room air VE unchanged.

Structures can show the parent of a compound that is named as a salt. Where two headings read alike, the source gives them in different places. Bounds are passed on as bounds.

In the case of `CCN1CC(CCN2CCOCC2)C(c2ccccc2)(c2ccccc2)C1=O` (racemic) [doxapram, 1-ethyl-4-[2-(4-morpholinyl)ethyl]-3,3-diphenyl-2-pyrrolidinone monohydrochloride, monohydrate], the blood pressure entry in [1] is on record as “increased blood pressure”. The LD50 in data set [2] is reported as 85 mg/kg. In data set [3] (1.5 mg/kg bolus), the T1/2 is 3.4 h and the peak in serum entry is given as “around 3 μg/ml”. Further, the peak plasma concentration in data set [3] (300 mg oral administration) is 0.96 µg/mL. Also, the peak plasma concentration in [3] (IV infusion 3.5 mg/kg/hr for 2 hours) was 4.0 µg/mL. In addition, in data set [3] (after stop of IV infusion 3.5 mg/kg/hr for 2 hours), the T1/2 is 3.9 h. For the same compound, in data set [3] (in vivo), the “effect on minute ventilation, time span” value is 0 to 10 min and the “return of minute ventilation to baseline” value was not above 15 min. In addition, the LD50 in data set [4] is listed as 72 mg/kg. Besides, in [5], the duration of effect is 5 to 12 min, the half-life is 3.4 h, the onset was 20 to 40 s and the peak plasma time is 1 to 2 min. For the same compound, the oxyhemoglobin desaturation events entry in data set [6] is “decreased the duration and severity”. Further, the therapeutic window in [7] is given as 20-40 fold.

Take `CCN1CC(CCN2CCOCC2=O)C(c2ccccc2)(c2ccccc2)C1=O` (centres unmarked) [AHR 5955, ketodoxapram]: the activity of metabolite result in data set [8] was “metabolically active in lambs in a dose dependent fashion”.

For the compound `O=C(c1ccc2nonc2c1)N1CCOCC1` [CX717], the “respiratory rate vs. placebo” value in data set [9] is listed as “prevented the fall in respiratory rate”. The “effect on respiratory depression” value in [10] is listed as “able to reverse the respiratory depressive effects”.

For the compound `CCCNc1nc(NCCC)nc(N(C)OC)n1` [GAL-021], in [11] (1-h continuous infusions), the “VE (AUE 0-1 h)” value is reported as “statistically significant increases”; the “time to half-maximal effect on VE and ETCO2” value was less than 10 min. Besides, in [11] (after infusion), the “distribution t1/2” value was 0.5 h and the “terminal t1/2” value was 5 to 7 h. Moreover, the “reduction of GAL-021-induced respiratory stimulation” value in data set [12] is “about 85%”.

With `CCN1CC(CCN2CCOCC2)C(c2ccccc2)(c2ccccc2)C1=O` (centres unmarked) [GAL-053], the “behavioral side effects (agitation, seizures)” value in [13] is “agitation and seizures were restricted to GAL-053”; in [14] it was “agitation and seizures were restricted to GAL-053”.

With `CCN1CC(CCN2CCOCC2)C(c2ccccc2)(c2ccccc2)C1=O` (centres unmarked) [GAL-054], in data set [15], the “increase in blood pressure above baseline values” was 15-20%. For the same compound, the minute volume result in [13] (intravenous, drug naïve and opioid challenged rats) was “dose-dependently increased minute volume”; in [14] (intravenous, drug naïve and opioid challenged cynomolgus monkeys) it was “dose-dependently increased minute volume”. In addition, the “behavioral side effects (agitation, seizures)” value in data set [13] and in data set [14] was “minimal behavioral changes” in each case.

As for `C=CCNc1nc(NCC=C)nc(N2CCN(C(c3ccc(F)cc3)c3ccc(F)cc3)CC2)n1` [almitrine, N,N′-Diallyl-6-[4-(4,4′difluorobenzhydryl)piperazin-1-yl]-1,3,5-triazine-2,4-diyldiamine], in data set [2], the LD50 was more than 200 mg/kg. Also, in data set [16] (setting [22]), the plasma level at which slope of hypercapnic ventilatory response increased was more than 200 ng/mL and the plasma level at which slope of hypoxic ventilatory response increased is more than 50 ng/mL. In addition, the “increase in VE above baseline” value in data set [16] (room air, plasma concentrations exceeding approximately 250 μg/ml) is “about 11%”. For the same compound, the weight loss in [17] is listed as more than 15%.

In the case of `COc1ccc2c3c1O[C@H]1C(=O)CC[C@H]4[C@@H](C2)N(C)CC[C@]314.O=C(O)C(O)C(O)C(=O)O` [hydrocodone bitartrate], in data set [18] (after 15 mg hydrocodone to a human subject, depending on formulation), the “maximum plasma concentration (Cmax)” value was 1 to 40.

Consider `COc1ccc2c3c1O[C@H]1C(=O)CC[C@H]4[C@@H](C2)N(C)CC[C@]314` [hydrocodone], for which, in [19] (average), the serum half-life was 3.8 h. The “metabolism attributed to non-cytochrome-catalyzed reactions” value in data set [19] (in vivo) is “Approximately 40%”. Further, the “blood and plasma concentration” value is 100-1,600 μg/L in data set [18] (acute, fatal overdose); 5 to 30 µg/L in data set [18] (people taking the drug therapeutically); 100 to 200 µg/L in data set [18] (recreational users). In addition, the “analgesic potency versus morphine” value in data set [20] was “higher than morphine”. In addition, in data set [21], the bound to protein is listed as 20-50%.

The values above are taken from patent publication US10653700B2, “Composition comprising a therapeutic agent and a respiratory stimulant and methods for the use thereof” (priority 2015, dated 2020).
